Measurements reported in patent publication US20050084872A1 (priority 2003, published 2005).

What was measured:
PPARγ [1] = assay: PPARγ efficacy score from expression of the 22-probe efficacy-related gene population in cultured 3T3L1 adipocytes; type: cell-based, mouse; details: mean over 22 probes of logRatio divided by template logRatio, template = average of Rosiglitazone and {2-[2-(4-phenoxy-2-propylphenoxy)ethyl]-1H-indol-5-yl}acetic acid
Procedure: Twenty four hours after the cells were contacted with one or other of the foregoing agents the cells were harvested and RNA extracted therefrom.
Thus, an efficacy value a PPARγ agonist, or partial agonist, was calculated in the following manner. […] This mean value was the PPARγ efficacy value for the PPARγ agonist, or partial agonist.
A chi-square fitting was also used to calculate the efficacy value for each tested PPARγ agonist, or partial agonist. The chi-square fitting formula used was: [formula]
Where Ri, σRi stand for the logRatio and error for logRatio of the full template. Xi and σXi stand for the logRatio and error for logRatio of the testing compound.
A PPARα agonist was included as a control.

PPARγ [2] = assay: PPARγ classifier value from expression of the 303-probe classifier gene population in 3T3L1 adipocyte cell line; type: cell-based, mouse; details: Phase 3, high dosage (30×EC50), mean over 303 probes of logRatio divided by template logRatio, template = average of two full agonists (Group 1)
Procedure: The overall experiment was conducted in three phases (i.e., in three separate experiments conducted at three different times) as shown in Table 11 below. Three replicates were done for each of the tested compounds in each phase of the experiment.
The other PPARγ agonist, and partial agonist, compounds were used in testing the classifier population of genes. […] The PPARα agonist was included as a control.
The three replicate gene expression profiles within each phase of the experiment were first combined based on the error-weighted average. Expression profiles of two PPARγ full agonists, and four PPARγ partial agonists (in Phase 1) were chosen for classifier training, and were divided into the following two groups:
Group 1: two PPARγ full agonists (5-(4-{2-[methyl(pyridin-2-yl)amino]ethoxy} benzyl)-1,3-thiazolidine-2,4-dione and 5-{4-[2-hydroxy-2-(5-methyl-2-phenyl-1,3-oxazol-4-yl)ethoxy]benzyl}-1,3-thiazolidine-2,4-dione)
The Matlab function ANOVA1 (one-way analysis of variance) was used to calculate the pvalue (hereafter referred to as the ANOVA-pvalue) for the null hypothesis that the means of Group 1 and Group 2 are equal.

| Structure (SMILES) | Efficacy Score (PPARγ [1]) | Classifier Value (PPARγ [2]) |
| --- | --- | --- |
| CCCc1cc(Oc2ccccc2)ccc1OCCc1cc2cc(CC(=O)O)ccc2[nH]1 [Agonist 1, {2-[2-(4-phenoxy-2-propylphenoxy)ethyl]-1H-indol-5-yl}acetic acid] | 1.033 | 0.881 |
| CN(CCOc1ccc(CC2SC(=O)NC2=O)cc1)c1ccccn1 (stereo not shown) [Rosiglitazone, 5-(4-{2-[methyl(pyridin-2-yl)amino]ethoxy}benzyl)-1,3-thiazolidine-2,4-dione] | 0.967 | 0.850 |
